Several values for one entry are separate records, joined by “and”; a condition that tells them apart may be missing. Equal entries are not always repeated. Where two headings read alike, the source gives them in different places.
Experiments:
purified human Hb = molecular target: T1, purified human Hb (Homo sapiens, UniProt P68871); assay: ITC binding affinity assay; conditions: Hb+KDS12025, without H2O2
T1 construct: purchased MP Biomedical 55914
Experimental: All ITC experiments were conducted via a MicroCal AutoiTC200 (Malvern Panalytical) at the Korea Basic Science Institute (Ochang, Korea). Binding affinity was measured via the addition of 40 µl of 5 mM KDS12025 (ligand) and 200 µl of 200 μM purified human Hb (protein) (MP Biomedical, 55914) in sodium phosphate buffer (pH 7.2). For each titration experiment, 2 µl of KDS12025 was injected into purified human Hb for 4 s at intervals of 180 s at 25 °C. Overall, 19 injections were performed for each experiment, and the data were analyzed via MicroCal Origin 8.0 software.

mice = assay: Laser speckle contrast imaging of cerebral perfusion; format: in vivo, mouse
Experimental: To assess cerebral perfusion, mice were anesthetized with isoflurane (2-3% in 100% O2, maintained at 1.0%) and placed on a heating pad to maintain body temperature. Following scalp incision, the skull surface was exposed without thinning or craniotomy. LSCI was performed using a laser speckle imaging system (RWD Life Science), acquiring frames at 30 Hz. KDS12025 (0.1, 1, or 10 mg/kg/day) or saline was administered via retro-orbital injection immediately prior to imaging. Cerebral blood perfusion and vessel diameter (pipe diameter) were quantified using RWD’s proprietary LSCI analysis software. All imaging was conducted under identical illumination and acquisition parameters.

aged C57BL/6J mice = assay: Survival of aging mice; format: in vivo, mouse
Experimental: Aged 1-year-old C57BL/6J animals were purchased from Janvier Labs (France) and quarantined in the IBS Animal Facility for 2 weeks before the experiment. The animals were weighed, and their water consumption (in grams) was monitored for 3 days before the appropriate drug concentration was calculated for each dose group. The animals were randomly assigned to the drug/control and dose groups. […] The drug concentration (in water) was modified on the basis of changes in animal weight and corresponding water consumption every 3 months. Basal body temperature and body weight were monitored every 2 weeks. The care and handling of the animals were performed in accordance with the guidelines of the Institutional Animal Care and Use Committee of IBS (Daejeon, South Korea).

SOD1^G93A mice = assay: Survival and rotarod, SOD1^G93A ALS mice; format: in vivo, mouse; conditions: 1 and 10 mg/kg/day ad libitum
Experimental: SOD1^G93A mice (B6SJL-Tg(SOD1*G93A)1Gur/J) were purchased from Jackson Laboratory (strain number 002726) and used in the ALS mouse model. The mice were divided into four groups: Control, SOD1, and KDS12025 (1 and 10 mg/kg/day). Starting at 10 weeks of age, KDS12025 was administered via ad libitum drinking water at doses of 1 mg/kg/day and 10 mg/kg/day. The control and SOD1 groups received standard drinking water. Motor function was evaluated weekly via the rotarod performance test, and the ratio of running time was normalized to that of littermate controls to assess motor coordination and endurance over time. Survival of the mice was monitored for up to 24 weeks, and median survival times were calculated for each group.

COX2(h) = molecular target: T2, COX2(h) (Homo sapiens, UniProt P35354); assay: SafetyScreen87 panel; format: biochemical; conditions: 1.00E-06, read-out: % Inhibition of Control Specific Binding (1st, 2nd, Mean)
T2 construct: purchased Eurofins Discovery (Cerep, France)
T2 sequence (P35354 18-604): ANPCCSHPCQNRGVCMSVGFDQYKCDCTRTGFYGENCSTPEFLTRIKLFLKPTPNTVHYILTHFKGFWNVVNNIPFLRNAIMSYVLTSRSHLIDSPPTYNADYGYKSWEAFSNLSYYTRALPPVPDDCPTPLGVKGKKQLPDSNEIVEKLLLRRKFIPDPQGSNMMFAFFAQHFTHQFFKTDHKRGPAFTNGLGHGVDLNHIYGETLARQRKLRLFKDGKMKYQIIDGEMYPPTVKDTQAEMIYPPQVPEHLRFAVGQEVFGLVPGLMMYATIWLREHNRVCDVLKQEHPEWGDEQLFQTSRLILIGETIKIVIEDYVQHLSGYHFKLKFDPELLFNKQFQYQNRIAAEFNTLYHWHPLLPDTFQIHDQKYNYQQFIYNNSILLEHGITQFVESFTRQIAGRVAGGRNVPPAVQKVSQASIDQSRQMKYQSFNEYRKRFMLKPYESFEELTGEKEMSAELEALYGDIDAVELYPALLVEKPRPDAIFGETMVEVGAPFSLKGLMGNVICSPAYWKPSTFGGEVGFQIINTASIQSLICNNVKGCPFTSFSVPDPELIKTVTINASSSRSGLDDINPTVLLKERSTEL
Experimental: (§1) The possibility of KDS12025 on kinase off-target, the KINOMEscan panel of scanEDGE assay was conducted in DiscoverX (CA, USA) using a site-directed competition binding with the test compounds. The assay results are given in Supplementary Table 4 and experimental information is available on the DiscoverX web page (www.discoverx.com). Moreover, the Delta SafetyScreen87 panel assay was conducted in Eurofins Discovery (Cerep, France). The assay results are given in Supplementary Table 5 and experimental information is available on the DiscoverX web page (https://www.eurofinsdiscoveryservices.com).

acetylcholinesterase (h) = molecular target: T3, acetylcholinesterase (h) (Homo sapiens, UniProt P22303); assay: SafetyScreen87 panel; format: biochemical; conditions: 1.00E-06, read-out: % Inhibition of Control Specific Binding (1st, 2nd, Mean)
T3 construct: purchased Eurofins Discovery (Cerep, France)
T3 sequence (P22303 32-614): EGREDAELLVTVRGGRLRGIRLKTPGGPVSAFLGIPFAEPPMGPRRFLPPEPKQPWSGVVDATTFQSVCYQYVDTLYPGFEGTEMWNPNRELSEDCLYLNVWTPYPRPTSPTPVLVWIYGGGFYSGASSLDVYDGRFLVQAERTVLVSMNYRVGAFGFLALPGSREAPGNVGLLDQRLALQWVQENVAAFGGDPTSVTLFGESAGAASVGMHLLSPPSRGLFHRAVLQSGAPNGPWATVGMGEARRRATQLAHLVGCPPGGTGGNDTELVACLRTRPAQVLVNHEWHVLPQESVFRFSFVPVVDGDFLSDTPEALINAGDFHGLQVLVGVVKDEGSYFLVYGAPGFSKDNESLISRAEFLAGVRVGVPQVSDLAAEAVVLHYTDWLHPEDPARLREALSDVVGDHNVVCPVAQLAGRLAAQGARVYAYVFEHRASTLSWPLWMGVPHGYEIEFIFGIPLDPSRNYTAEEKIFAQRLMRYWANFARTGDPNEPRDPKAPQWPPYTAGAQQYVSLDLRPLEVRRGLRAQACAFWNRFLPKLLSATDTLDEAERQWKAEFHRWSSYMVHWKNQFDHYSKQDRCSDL
Experimental: as §1

PDE3A (h) = molecular target: T4, PDE3A (h) (Homo sapiens, UniProt Q14432); assay: SafetyScreen87 panel; format: biochemical
T4 construct: purchased Eurofins Discovery (Cerep, France)
T4 sequence (Q14432 whole entry): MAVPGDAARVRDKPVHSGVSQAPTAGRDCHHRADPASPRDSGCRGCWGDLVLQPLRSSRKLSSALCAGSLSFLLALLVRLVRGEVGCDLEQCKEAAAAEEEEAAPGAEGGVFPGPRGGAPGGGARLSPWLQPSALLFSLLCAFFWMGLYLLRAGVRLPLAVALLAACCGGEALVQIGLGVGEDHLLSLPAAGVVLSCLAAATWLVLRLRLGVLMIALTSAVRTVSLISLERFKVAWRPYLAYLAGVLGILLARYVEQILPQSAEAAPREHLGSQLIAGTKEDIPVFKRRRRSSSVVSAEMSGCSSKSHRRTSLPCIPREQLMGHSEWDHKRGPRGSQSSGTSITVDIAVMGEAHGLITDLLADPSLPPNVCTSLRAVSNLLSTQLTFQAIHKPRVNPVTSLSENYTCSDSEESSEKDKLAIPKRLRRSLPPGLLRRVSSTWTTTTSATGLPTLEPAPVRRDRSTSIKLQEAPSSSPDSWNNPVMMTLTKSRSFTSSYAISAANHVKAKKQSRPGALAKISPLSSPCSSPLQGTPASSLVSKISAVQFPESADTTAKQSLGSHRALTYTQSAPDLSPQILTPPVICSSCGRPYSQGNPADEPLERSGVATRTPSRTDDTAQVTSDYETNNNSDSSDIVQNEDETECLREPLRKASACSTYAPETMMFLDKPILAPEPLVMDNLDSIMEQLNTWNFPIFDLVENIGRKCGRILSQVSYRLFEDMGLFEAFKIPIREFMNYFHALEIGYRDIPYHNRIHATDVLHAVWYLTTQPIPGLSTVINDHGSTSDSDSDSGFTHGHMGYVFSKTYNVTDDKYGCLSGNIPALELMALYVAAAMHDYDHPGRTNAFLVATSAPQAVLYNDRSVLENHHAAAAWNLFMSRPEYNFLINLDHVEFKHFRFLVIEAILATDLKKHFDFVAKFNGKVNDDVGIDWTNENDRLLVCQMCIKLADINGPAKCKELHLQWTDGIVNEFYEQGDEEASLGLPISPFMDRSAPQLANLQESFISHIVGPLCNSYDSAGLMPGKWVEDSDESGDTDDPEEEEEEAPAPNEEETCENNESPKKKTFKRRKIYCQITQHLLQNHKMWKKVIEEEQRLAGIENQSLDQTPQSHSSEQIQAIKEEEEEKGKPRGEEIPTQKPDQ
Experimental: as §1

ACE (h) = molecular target: T5, ACE (h) (Homo sapiens, UniProt P12821); assay: SafetyScreen87 panel; format: biochemical; conditions: 1.00E-06, read-out: % Inhibition of Control Specific Binding (1st, 2nd, Mean)
T5 construct: purchased Eurofins Discovery (Cerep, France)
T5 sequence (P12821 30-1306): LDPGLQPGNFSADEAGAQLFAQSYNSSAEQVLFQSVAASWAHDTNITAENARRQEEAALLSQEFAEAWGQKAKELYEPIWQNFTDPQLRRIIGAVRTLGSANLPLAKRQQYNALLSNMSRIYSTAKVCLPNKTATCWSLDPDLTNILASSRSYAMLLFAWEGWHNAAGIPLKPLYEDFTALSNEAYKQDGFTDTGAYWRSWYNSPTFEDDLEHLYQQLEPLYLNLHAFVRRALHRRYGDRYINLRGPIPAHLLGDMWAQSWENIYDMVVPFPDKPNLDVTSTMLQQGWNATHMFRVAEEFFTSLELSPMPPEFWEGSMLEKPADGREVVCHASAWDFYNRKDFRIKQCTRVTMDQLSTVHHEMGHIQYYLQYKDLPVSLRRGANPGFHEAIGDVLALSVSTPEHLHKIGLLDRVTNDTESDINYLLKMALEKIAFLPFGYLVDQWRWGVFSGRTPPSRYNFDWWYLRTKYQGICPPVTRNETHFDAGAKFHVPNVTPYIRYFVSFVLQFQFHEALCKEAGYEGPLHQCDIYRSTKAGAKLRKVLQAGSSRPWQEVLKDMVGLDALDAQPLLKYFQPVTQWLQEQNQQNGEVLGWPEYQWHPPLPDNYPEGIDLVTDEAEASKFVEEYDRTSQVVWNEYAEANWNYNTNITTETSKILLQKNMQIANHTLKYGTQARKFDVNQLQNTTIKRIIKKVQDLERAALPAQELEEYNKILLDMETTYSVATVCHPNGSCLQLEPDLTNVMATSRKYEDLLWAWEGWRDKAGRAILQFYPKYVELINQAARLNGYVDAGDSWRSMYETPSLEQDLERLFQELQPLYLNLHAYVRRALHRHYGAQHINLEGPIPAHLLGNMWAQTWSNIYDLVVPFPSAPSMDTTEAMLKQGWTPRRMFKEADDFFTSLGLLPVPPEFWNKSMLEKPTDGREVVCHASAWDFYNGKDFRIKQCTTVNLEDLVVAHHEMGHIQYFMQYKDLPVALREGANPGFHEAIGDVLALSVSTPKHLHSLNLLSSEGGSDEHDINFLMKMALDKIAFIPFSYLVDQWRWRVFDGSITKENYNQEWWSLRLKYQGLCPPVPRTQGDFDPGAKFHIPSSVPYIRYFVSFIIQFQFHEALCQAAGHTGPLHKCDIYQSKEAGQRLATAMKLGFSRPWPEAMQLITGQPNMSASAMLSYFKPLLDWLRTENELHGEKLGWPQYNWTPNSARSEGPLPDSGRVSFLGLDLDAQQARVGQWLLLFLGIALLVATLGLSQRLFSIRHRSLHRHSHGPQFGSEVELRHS
Experimental: as §1

ATPase (Na+/K+) = assay: SafetyScreen87 panel; format: biochemical; conditions: 1.00E-06; read-out: % Inhibition of Control Specific Binding (1st, 2nd, Mean)
Experimental: as §1

Lck kinase (h) = molecular target: T6, Lck kinase (h) (Homo sapiens, UniProt P06239); assay: SafetyScreen87 panel; format: biochemical; conditions: 1.00E-06, read-out: % Inhibition of Control Specific Binding (1st, 2nd, Mean)
T6 construct: purchased Eurofins Discovery (Cerep, France)
Experimental: as §1

PDE4D2 (h) = molecular target: T7, PDE4D2 (h) (Homo sapiens, UniProt Q08499); assay: SafetyScreen87 panel; format: biochemical
T7 construct: purchased Eurofins Discovery (Cerep, France)
T7 sequence (Q08499 303-809 limits assumed): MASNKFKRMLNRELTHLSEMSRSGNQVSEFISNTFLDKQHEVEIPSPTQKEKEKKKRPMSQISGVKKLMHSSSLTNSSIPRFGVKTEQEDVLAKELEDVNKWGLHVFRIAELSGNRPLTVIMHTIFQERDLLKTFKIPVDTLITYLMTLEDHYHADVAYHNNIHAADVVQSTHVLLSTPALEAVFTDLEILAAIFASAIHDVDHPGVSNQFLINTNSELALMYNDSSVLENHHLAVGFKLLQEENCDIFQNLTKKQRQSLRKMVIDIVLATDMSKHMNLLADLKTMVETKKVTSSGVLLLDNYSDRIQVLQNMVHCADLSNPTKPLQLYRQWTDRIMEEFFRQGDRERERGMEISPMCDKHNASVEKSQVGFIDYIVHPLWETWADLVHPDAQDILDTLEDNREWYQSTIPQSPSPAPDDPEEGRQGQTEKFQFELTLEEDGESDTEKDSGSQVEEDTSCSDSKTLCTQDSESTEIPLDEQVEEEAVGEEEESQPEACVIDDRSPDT
Experimental: as §1

COX1(h) = molecular target: T8, COX1(h) (Homo sapiens, UniProt P23219); assay: SafetyScreen87 panel; format: biochemical; conditions: 1.00E-06, read-out: % Inhibition of Control Specific Binding (1st, 2nd, Mean)
T8 construct: Eurofins Discovery (Cerep, France) SafetyScreen87 panel
Experimental: as §1

IRK (h) (InsR) = molecular target: T9, IRK (h) (InsR) (Homo sapiens, UniProt P06213); assay: SafetyScreen87 panel; format: biochemical
T9 construct: purchased Eurofins Discovery (Cerep, France)
Experimental: as §1

cathepsin G (h) = molecular target: T10, cathepsin G (h) (Homo sapiens, UniProt P08311); assay: SafetyScreen87 panel; format: biochemical; conditions: 1.00E-06, read-out: % Inhibition of Control Specific Binding (1st, 2nd, Mean)
T10 construct: purchased Eurofins Discovery (Cerep, France)
T10 sequence (P08311 21-255): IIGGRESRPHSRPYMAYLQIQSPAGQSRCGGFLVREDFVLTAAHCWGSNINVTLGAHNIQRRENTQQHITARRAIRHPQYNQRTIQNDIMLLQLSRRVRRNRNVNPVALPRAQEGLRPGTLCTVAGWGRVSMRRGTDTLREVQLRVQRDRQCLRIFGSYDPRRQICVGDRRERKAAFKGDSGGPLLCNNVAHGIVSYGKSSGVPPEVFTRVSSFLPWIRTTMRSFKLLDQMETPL
Experimental: as §1

[1] = molecular target: T11, MAO-B (h) recombinant enzyme (Homo sapiens, UniProt P27338); assay: SafetyScreen87 panel; format: biochemical; conditions: 1.00E-06, read-out: % Inhibition of Control Specific Binding (1st, 2nd, Mean)
T11 construct: purchased Eurofins Discovery (Cerep, France)
Experimental: as §1

PKCalpha (h) = molecular target: T12, PKCalpha (h) (Homo sapiens, UniProt P17252); assay: SafetyScreen87 panel; format: biochemical; conditions: 1.00E-06, read-out: % Inhibition of Control Specific Binding (1st, 2nd, Mean)
T12 construct: purchased Eurofins Discovery (Cerep, France)
Experimental: as §1

[2] = 1.00E-06; read-out: % Inhibition of Control Specific Binding (1st, 2nd, Mean)
[3] = read-out: % Inhibition of Control Specific Binding (1st, 2nd, Mean); 1.00E-06

CNc1ccc(NCCc2ccccc2OC)cc1.Cl [KDS12025, N^1-(2-methoxyphenethyl)-N^4-methylbenzene-1,4-diamine hydrochloride salt]
ΔG (ITC) (purified human Hb): -7.53 kcal/mol
ΔH (ITC) (purified human Hb): -580 kcal/mol
overall cerebral perfusion (LSCI, Fig. S8f) (mice; 0.1 mpk retro-orbital): 1169±10.7
vessel diameter (pipe diameter, Fig. S8g) (mice; 0.1 mpk retro-orbital): 193±3.8
overall cerebral perfusion (LSCI, Fig. S8f) (mice; 1 mpk retro-orbital): 1205±10.4
vessel diameter (pipe diameter, Fig. S8g) (mice; 1 mpk retro-orbital): 200±2.3
overall cerebral perfusion (LSCI, Fig. S8f) (mice; 10 mpk retro-orbital): 1190±7.4
vessel diameter (pipe diameter, Fig. S8g) (mice; 10 mpk retro-orbital): 203±3.9
increase of median survival (aged C57BL/6J mice; 0.1 and 1 mg/kg/day ad libitum from 14 months): ~ 14%
adverse effects during chronic administration (aged C57BL/6J mice; 22-month administration, 0.1 and 1 mg/kg/day): no apparent adverse effects were observed
female mice surviving at 31 months (aged C57BL/6J mice; KDS12025 groups, when all control mice had died): 46.7%
delay of motor impairment onset (SOD1^G93A mice; rotarod): more than 7 weeks
median survival (SOD1^G93A mice; untreated 140): 168 days
activity (COX2(h); mean): 43.8%
activity (COX2(h)): 42.2% and 45.3%
activity (acetylcholinesterase (h); mean): 91.7%
activity (acetylcholinesterase (h)): 92.6% and 90.8%
activity (PDE3A (h); [2]): 89.8%
activity (PDE3A (h); [3]): 87.1% and 92.4%
activity (ACE (h); mean): 100%
activity (ACE (h)): 101% and 99.4%
activity (ATPase (Na+/K+)): 97.8%
activity (Lck kinase (h); mean): 94.1%
activity (Lck kinase (h)): 95.9% and 92.2%
activity (PDE4D2 (h); [2]): 95.3% and 102%
activity (PDE4D2 (h); [3]): 98.7%
activity (COX1(h); mean): 59.3%
activity (COX1(h)): 62.5% and 56.1%
activity (IRK (h) (InsR); [2]): 109%
activity (IRK (h) (InsR); [3]): 100%
activity (cathepsin G (h); mean): 100%
activity (cathepsin G (h)): 97.2% and 103%
activity ([1]; mean): 119%
activity [1]: 116% and 121%
activity (PKCalpha (h); mean): 104%
activity (PKCalpha (h)): 105% and 103%

Source: publication PMC12373846, “Hemoglobin as a pseudoperoxidase and drug target for oxidative stress-related diseases” (Signal Transduction and Targeted Therapy, 2025)
